Measured values published in US10550096B2, “Tetrahydroisoquinolines as PRMT5 inhibitors” (CTXT PTY LTD, priority 2016, dated 2020).
Where a name gives a salt, the structure may show the parent alone.

Tests used:
[1] = target: Full-length PRMT5 enzyme co-expressed with His6-MEP50 (Homo sapiens (Human), UniProt O14744); assay: PRMT5 Biochemical Assay; conditions: histone H4 derived peptide substrate 1 μM, 1 μM S-Adenosyl methionine, 4 hours at 37 degree Celsius, Transcreener EPIGEN fluorescence polarisation
Description: Compounds of the invention may be tested for in vitro activity in the following assay:
A histone H4 derived peptide is used as substrate (amino acid sequence: […]NH2). Full-length PRMT5 enzyme (NCBI Reference sequence NP_006100.2) was co-expressed with His6-MEP50 in insect cells and purified via Nickel immobilized metal affinity and gel filtration chromatography (“the enzyme”).
The 6 μL reactions are run in Greiner brand black 384-well low volume assay plates. All reactions contained assay buffer (phosphate buffered saline, 0.01% (v/v) Tween-20, 0.01% (w/v) albumin from chicken egg white, 1 mM Dithiothreitol, 1 μM peptide substrate, 1 μM S-Adenosyl methionine, and 15 ng/reaction enzyme, with the enzyme being omitted from negative control reactions. Compounds were added in a volume of 100 nL from dilution series prepared in DMSO, positive and negative control reactions receiving the same volume DMSO without compound. The plates were sealed with adhesive seals and incubated for 4 hours at 37 degree Celsius. Reaction progress was measured using the Transcreener™ EPIGEN methyltransferase assay (BellBrook Labs, Madison, Wis.) as recommended by the manufacturer. To each reaction 2 μL detection mix were added, containing coupling enzymes, fluorescence polarisation tracer, and AMP antibody. Plates were incubated for 90 minutes before being read on a PerkinElmer EnVision™ plate reader in fluorescence polarisation mode. IC50 values were obtained from the raw readings by calculating percent inhibition (% I) for each reaction relative to controls on the same plate (% I=(I−CN)/(CP−CN) where CN/CP are the averages of the negative/positive reactions, respectively), then fitting the % I data vs. compound concentration [I] to % I=(A+((B−A)/(1+((C/[I])^D)))) where A is the lower asymptote, B is the upper asymptote, C is the IC50 value, and D is the slope.

TE11 cells = assay: PRMT5 Biomarker Assay (symmetrical dimethylation of arginine, Histone H4 Arginine 3); type: cell-based; conditions: Homo sapiens, TE-11; TE11 cell line, 72 hours incubation, Di-Methyl Histone H4 Arginine 3 level, high content imaging
Description: Compounds of the invention may be tested for potency to inhibit symmetrical dimethylation of arginine in the following assay:
The cell line TE11 was seeded at a density of 6,000 cells per well in 96 well optical quality tissue culture plates in DME medium and 10% foetal bovine serum, and allowed to adhere for 5 hours under standard culture conditions (37 degree Celsius, 5% CO2). Compound dilutions prepared in DMSO were added to the medium, with negative control wells reserved for treatment with DMSO only and maximum inhibition controls receiving a potent PRMT5 inhibitor compound at 1 μM concentration. After incubation for 72 hours, the cells were fixed with 3.7% formaldehyde in PBS for 30 minutes at room temperature, washed with phosphate buffer saline and blocked with Odyssey blocking buffer (LI-COR, Lincoln, Nebr.). Rabbit anti-Di-Methyl Histone H4 Arginine 3 specific antibody (Epigentek) in Odyssey blocking buffer was added and incubated for 14 hours at 4 degree Celsius. […] Plates were washed and read on a PerkinElmer Envision 2103 in fluorescence intensity scanning mode (24 scans across the well area). […] Using a Columbus image analysis pipeline, individual nuclei were located by Hoechst 33342 stain and the methylation level was calculated from the Alexa647-related intensity in the same area. […]

Full-length PRMT5 enzyme co-expressed with His6-MEP50, sequence (O14744 whole entry): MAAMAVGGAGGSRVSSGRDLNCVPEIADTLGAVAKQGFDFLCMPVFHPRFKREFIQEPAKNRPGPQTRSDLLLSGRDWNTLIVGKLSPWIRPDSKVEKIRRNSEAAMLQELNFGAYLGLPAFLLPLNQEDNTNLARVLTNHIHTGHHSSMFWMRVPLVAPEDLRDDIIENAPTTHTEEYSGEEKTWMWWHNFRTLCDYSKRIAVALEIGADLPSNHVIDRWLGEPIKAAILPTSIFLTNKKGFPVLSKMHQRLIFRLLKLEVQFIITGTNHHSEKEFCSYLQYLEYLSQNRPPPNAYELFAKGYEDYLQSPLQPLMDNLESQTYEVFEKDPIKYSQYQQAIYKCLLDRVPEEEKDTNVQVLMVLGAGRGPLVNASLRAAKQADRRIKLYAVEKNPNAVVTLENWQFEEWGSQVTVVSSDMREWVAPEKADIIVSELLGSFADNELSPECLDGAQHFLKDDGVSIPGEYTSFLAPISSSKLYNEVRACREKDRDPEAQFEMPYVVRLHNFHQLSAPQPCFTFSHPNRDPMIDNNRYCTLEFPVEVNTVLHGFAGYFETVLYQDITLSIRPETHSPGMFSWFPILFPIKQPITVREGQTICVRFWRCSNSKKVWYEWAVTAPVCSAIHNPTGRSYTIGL
Full-length PRMT5 enzyme co-expressed with His6-MEP50, sequence (Q9BQA1 whole entry partner): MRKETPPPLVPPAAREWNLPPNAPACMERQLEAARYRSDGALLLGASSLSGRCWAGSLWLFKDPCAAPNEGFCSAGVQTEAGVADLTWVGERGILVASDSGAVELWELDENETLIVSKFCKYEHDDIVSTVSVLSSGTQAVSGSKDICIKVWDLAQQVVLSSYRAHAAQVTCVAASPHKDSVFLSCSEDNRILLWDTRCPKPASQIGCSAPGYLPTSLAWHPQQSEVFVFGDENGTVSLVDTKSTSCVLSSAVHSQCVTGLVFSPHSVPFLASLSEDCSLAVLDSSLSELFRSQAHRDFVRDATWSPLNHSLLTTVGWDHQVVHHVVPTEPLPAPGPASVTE

SMILES | IC50 [1] [nM] | IC50 (TE11 cells) [nM]
Cc1nn(C[C@@H](O)[C@@H]2Cc3ccccc3CN2)c(=O)c2ccccc12 [Example 2, 2-((R)-2-Hydroxy-2-((S)-1,2,3,4-tetrahydroisoquinolin-3-yl)ethyl)-4-methylphthalazin-1(2H)-one hydrochloride] | 7320 | 
CCc1nn(C[C@@H](O)[C@@H]2Cc3ccccc3CN2)c(=O)c2ccc(C(=O)N3C4CCC3COC4)cc12 [Example 3, 6-(3-Oxa-8-azabicyclo[3.2.1]octane-8-carbonyl)-4-ethyl-2-((R)-2-hydroxy-2-((S)-1,2,3,4-tetrahydroisoquinolin-3-yl)ethyl)phthalazin-1(2H)-one hydrochloride] | 39 | 1
O=C(c1ccc2c(=O)n(C[C@@H](O)[C@@H]3Cc4ccccc4CN3)ccc2c1)N1C2CCC1COC2 [Example 1, 6-(3-Oxa-8-azabicyclo[3.2.1]octane-8-carbonyl)-2-((R)-2-hydroxy-2-((S)-1,2,3,4-tetrahydroisoquinolin-3-yl)ethyl)isoquinolin-1(2H)-one hydrochloride] | 533 | 430
